Results published in article PMC7827406, “Structure–Activity Relationship (SAR) Study of Spautin-1 to Entail the Discovery of Novel NEK4 Inhibitors” (International Journal of Molecular Sciences, 2021).
Read-outs that look alike come from different tables or passages of the source.

What was measured:
Assay in all cases: biochemical
Parameters in all cases: Eurofins KinaseProfiler full panel at Km ATP, residual kinase activity (%) relative to DMSO
DRAK1(h) = molecular target: T1, DRAK1(h) (Homo sapiens, UniProt Q9UEE5)
T1 construct: gene STK17A
T1 sequence (Q9UEE5 1-414): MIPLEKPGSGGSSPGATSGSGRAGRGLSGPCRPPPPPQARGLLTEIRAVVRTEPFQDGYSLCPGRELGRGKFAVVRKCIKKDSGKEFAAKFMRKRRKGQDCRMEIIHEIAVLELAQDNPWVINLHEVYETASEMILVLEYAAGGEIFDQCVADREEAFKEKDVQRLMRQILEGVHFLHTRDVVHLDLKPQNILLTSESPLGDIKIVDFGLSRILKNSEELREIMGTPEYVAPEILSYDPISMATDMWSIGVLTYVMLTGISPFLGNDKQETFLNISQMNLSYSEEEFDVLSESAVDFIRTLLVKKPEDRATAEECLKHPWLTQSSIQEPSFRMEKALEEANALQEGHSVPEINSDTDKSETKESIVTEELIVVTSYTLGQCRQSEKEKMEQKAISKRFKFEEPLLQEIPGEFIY
Summary of the method: (§1)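 Compounds screened at 10 µM in radiometric kinase activity assays at Km ATP, reported as remaining kinase activity (%). A KINOMEscan competition-binding screen at 10 µM measured DNA-tagged kinase retained on immobilized active-site ligand by qPCR.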

ZAP-70(h) = molecular target: T2, ZAP-70(h) (Homo sapiens, UniProt P43403)
T2 construct: gene ZAP70
T2 sequence (P43403 1-619): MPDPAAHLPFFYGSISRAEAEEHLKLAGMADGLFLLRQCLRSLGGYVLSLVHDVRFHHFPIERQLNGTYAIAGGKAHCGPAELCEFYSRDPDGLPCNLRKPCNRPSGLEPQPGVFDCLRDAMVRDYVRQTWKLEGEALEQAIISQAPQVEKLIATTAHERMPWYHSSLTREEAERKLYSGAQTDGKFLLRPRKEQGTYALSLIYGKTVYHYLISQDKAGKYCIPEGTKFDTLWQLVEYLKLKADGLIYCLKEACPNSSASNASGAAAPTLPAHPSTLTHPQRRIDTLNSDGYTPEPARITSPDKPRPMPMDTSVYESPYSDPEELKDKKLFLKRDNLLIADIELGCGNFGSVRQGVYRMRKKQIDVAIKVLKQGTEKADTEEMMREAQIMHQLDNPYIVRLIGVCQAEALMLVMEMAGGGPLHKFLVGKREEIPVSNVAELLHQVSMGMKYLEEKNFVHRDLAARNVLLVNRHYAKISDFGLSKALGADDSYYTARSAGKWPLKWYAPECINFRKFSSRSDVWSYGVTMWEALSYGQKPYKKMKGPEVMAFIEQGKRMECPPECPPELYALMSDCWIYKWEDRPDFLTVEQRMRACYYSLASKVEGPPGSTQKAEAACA
Summary of the method: as §1

Fms(Y969C)(h) = molecular target: T3, Fms(Y969C)(h) (Homo sapiens, UniProt P07333, Y969C)
T3 construct: gene CSF1R
Summary of the method: as §1

Itk(h) = molecular target: T4, Itk(h) (Homo sapiens, UniProt Q08881)
T4 sequence (Q08881 1-620): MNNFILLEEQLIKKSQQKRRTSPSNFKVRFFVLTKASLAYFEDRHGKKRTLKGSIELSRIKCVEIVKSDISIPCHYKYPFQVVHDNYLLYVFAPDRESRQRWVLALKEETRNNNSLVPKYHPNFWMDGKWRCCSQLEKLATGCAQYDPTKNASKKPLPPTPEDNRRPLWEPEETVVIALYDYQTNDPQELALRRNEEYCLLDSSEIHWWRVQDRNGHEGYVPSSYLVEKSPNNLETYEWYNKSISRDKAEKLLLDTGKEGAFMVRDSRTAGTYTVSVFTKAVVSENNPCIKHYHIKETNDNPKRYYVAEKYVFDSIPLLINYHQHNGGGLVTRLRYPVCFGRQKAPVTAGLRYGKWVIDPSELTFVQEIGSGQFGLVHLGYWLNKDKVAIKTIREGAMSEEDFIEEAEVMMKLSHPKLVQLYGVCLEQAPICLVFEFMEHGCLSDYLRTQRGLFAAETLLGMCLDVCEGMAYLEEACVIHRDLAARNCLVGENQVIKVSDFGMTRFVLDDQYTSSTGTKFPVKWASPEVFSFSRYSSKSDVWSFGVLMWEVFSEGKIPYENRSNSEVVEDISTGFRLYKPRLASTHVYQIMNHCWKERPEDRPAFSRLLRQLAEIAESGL
Summary of the method: as §1

Ret (V804L)(h) = Ret (V804L)(h) (Homo sapiens, UniProt P07949, V804L)
Summary of the method: as §1

[1] = read-out: Residual activity (%) 5ay
[2] = read-out: Residual activity (%) Spautin-1 5aa
[3] = read-out: Residual activity (%) 5at
[4] = read-out: Residual activity (%) 5as

Chain of Ret (V804L)(h) (P07949 whole entry V804L): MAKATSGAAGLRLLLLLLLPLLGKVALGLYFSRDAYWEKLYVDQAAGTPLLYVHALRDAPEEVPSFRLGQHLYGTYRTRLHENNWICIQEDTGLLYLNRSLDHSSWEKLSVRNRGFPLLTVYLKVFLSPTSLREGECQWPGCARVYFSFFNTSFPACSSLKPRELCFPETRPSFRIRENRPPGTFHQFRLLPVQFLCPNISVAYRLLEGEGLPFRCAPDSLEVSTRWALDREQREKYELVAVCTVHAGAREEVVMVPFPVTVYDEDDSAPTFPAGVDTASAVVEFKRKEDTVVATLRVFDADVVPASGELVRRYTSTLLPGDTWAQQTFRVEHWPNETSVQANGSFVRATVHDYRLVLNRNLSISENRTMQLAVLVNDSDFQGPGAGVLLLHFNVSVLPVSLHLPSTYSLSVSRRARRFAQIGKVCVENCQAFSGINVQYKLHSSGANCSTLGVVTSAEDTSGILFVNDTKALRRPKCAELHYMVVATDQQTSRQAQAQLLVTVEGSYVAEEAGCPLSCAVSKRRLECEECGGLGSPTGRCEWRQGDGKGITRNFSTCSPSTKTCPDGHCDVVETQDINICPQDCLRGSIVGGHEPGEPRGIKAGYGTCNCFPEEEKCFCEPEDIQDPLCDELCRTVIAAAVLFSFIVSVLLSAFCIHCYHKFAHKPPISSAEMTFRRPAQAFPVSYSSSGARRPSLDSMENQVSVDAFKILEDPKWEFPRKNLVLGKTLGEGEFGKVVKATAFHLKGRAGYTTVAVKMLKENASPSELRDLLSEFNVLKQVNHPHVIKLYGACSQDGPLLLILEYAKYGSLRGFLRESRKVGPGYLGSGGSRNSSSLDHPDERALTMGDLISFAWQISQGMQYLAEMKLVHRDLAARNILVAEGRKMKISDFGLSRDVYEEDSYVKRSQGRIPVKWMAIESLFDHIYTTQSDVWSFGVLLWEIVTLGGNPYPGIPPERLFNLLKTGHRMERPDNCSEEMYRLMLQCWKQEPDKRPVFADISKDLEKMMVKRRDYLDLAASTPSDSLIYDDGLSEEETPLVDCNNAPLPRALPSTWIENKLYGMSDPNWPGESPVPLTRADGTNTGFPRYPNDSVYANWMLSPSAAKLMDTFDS
T3 sequence (P07333 whole entry Y969C): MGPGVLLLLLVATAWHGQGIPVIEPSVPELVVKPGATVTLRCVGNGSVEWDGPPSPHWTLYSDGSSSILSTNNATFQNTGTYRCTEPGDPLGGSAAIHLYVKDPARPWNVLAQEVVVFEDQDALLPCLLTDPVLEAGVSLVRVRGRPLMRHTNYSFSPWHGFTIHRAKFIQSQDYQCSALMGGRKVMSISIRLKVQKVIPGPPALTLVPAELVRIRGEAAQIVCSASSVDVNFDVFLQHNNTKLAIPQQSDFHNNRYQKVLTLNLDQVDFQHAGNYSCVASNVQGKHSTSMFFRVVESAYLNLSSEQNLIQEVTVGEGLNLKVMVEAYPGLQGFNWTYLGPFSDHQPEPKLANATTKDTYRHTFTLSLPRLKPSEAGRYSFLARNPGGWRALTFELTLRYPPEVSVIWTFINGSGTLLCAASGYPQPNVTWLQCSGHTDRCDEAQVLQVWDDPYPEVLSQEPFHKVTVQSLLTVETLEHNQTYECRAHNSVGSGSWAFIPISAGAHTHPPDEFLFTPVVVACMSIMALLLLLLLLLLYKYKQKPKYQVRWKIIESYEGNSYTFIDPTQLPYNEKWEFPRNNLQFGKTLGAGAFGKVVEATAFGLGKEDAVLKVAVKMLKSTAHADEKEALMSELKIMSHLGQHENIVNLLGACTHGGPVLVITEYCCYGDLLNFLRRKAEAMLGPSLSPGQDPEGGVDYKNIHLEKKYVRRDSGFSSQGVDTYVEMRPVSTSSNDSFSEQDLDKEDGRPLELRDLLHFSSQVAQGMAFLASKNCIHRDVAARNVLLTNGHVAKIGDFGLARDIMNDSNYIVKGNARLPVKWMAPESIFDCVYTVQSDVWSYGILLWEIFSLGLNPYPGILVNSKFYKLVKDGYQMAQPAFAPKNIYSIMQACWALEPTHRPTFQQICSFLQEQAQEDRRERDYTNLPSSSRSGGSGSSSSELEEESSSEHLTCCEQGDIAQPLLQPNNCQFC

COc1ccc2ncnc(Nc3cccc(F)c3)c2c1 [5ay, N-(3-Fluorophenyl)-6-Methoxy-4-Quinazolinamine]
remaining activity at 10 µM (DRAK1(h); [1]): 57%
remaining activity at 10 µM (ZAP-70(h); [1]): 113%
remaining activity at 10 µM (Fms(Y969C)(h); [1]): 87%
remaining activity at 10 µM (Itk(h); [1]): 88%
remaining activity at 10 µM (Ret (V804L)(h); [1]): 91%

Fc1ccc(CNc2ncnc3ccc(F)cc23)cc1 [5aa, 6-Fluoro-N-(4-fluorobenzyl)-4-Quinazolinamine]
remaining activity at 10 µM (DRAK1(h); [2]): 98%
remaining activity at 10 µM (ZAP-70(h); [2]): 146%
remaining activity at 10 µM (Fms(Y969C)(h); [2]): 81%
remaining activity at 10 µM (Itk(h); [2]): 117%
remaining activity at 10 µM (Ret (V804L)(h); [2]): 82%

Fc1ccc2ncnc(NCCc3ccc(Cl)cc3)c2c1 [5at, N-[2-(4-Chlorophenyl)Ethyl]-6-Fluoro-4-Quinazolinamine]
remaining activity at 10 µM (DRAK1(h); [3]): 85%
remaining activity at 10 µM (ZAP-70(h); [3]): 130%
remaining activity at 10 µM (Fms(Y969C)(h); [3]): 78%
remaining activity at 10 µM (Itk(h); [3]): 103%
remaining activity at 10 µM (Ret (V804L)(h); [3]): 71%

Fc1ccc(CCNc2ncnc3ccc(F)cc23)cc1 [5as, 6-Fluoro-N-[2-(4-Fluorophenyl)Ethyl]-4-Quinazolinamine]
remaining activity at 10 µM (DRAK1(h); [4]): 79%
remaining activity at 10 µM (ZAP-70(h); [4]): 146%
remaining activity at 10 µM (Fms(Y969C)(h); [4]): 80%
remaining activity at 10 µM (Itk(h); [4]): 97%
remaining activity at 10 µM (Ret (V804L)(h); [4]): 78%
